The numbers were not newly measured in patent US10253031B2, “Stable pemetrexed arginine salt and compositions comprising it” (SYNTHON B.V., priority 2013, dated 2019), which cites them from elsewhere.

Where a name gives a salt, the structure may show the parent alone.

The conditions of this data set: background statement.

Turning to `Nc1nc2[nH]cc(CCc3ccc(C(=O)N[C@@H](CCC(=O)O)C(=O)O)cc3)c2c(=O)[nH]1` [Disodium salt of pemetrexed], the Solubility in water entry is on record as “soluble in water”.

Take `Nc1nc2[nH]cc(CCc3ccc(C(=O)N[C@@H](CCC(=O)O)C(=O)O)cc3)c2c(=O)[nH]1` [pemetrexed diacid, N-[4-[2-(2-amino-4,7-dihydro-4-oxo-1H-pyrrolo [2,3-d]pyrimidin-5-yl)ethyl]benzoyl]-L-glutamic acid]: the Solubility in water entry is on record as “sparingly soluble”.
